Measurements from patent US11814371B2, “Heterocyclic compound” (MEDSHINE DISCOVERY INC., priority 2020, dated 2023).
Structures can show the parent of a compound that is named as a salt. Where two headings read alike, the source gives them in different places.

Columns and labels:
[1] = Pharmacokinetic test in rats after intravenous and intragastric administration (plasma, LC-MS/MS); format: in vivo; conditions: male, SD, rat; for AUC(0-inf): read-out: Curve area (o-inf) AUC0-inf; for AUC(0-t): read-out: Curve area (o-t) AUC0-last; for half-life: read-out: Half-life T½ (converted); for Tmax: read-out: Peak time Tmax; for Cmax: read-out: Plasma drug concentration Cmax; for bioavailability: read-out: Bioavailability F; for Vd: read-out: Apparent volume of distribution Vdss; for clearance: read-out: Clearance rate Cl
Experimental: Male SD rats were used as test animals, and LC-MS/MS method was used to determine the drug concentrations in plasma of rats at different times after intravenous and intragastric administration of test compounds. The pharmacokinetic behaviors of the compounds in rats were studied and the pharmacokinetic characteristics were evaluated.
2.2 Test animals: 28 healthy adult male SD rats were divided into 14 groups with 2 rats in each group. Animals were purchased from Beijing Vital River Laboratory Animal Technology Co., Ltd.
(§1) An appropriate amount of sample was weighed, and an appropriate amount of DMSO, polyoxyethylene castor oil and sterile water for injection were added in sequence according to the volume ratio of 10:10:80, then the mixture was stirred and sonicated to reach a clear state of 0.5 mg/mL for intravenous administration.
as §1, with “clear or suspension” for “clear”, “0.4” for “0.5”, “intragastric” for “intravenous”
as §1, with “3” for “0.5”
2.4 Administration: 28 male SD rats were divided into 14 groups, after fasting for one night, the intravenous administration group was administered with an administration volume of 2 mL/kg and a dose of 1 mg/kg; the intragastric administration group 1 was administered with an administration volume of 5 mL/kg and a dose of 2 mg/kg. The intragastric administration group 2 was administered with an administration volume of 10 mL/kg and a dose of 30 mg/kg.
After the compound was administered intravenously to male SD rats, 40 µL of blood was collected at 0.0833, 0.25, 0.5, 1, 2, 4, 8 and 24 hours, respectively, and placed in tubes containing 2 µL of EDTA-K2. After the compound was administered in the intragastric administration group, 40 µL of blood was collected at 0.25, 0.5, 1, 2, 4, 6, 10 and 24 hours, respectively, and placed in tubes containing 2 µL of EDTA-K2. The tubes were centrifuged at 4000 rpm for 15 minutes to separate the plasma, and stored at -60° C. Animals were allowed to eat 2 hours after administration.
LC-MS/MS method was used to determine the content of the test compounds in the plasma of rats after intravenous and intragastric administration. The linear range of the method was 2.00 - 6000 nmol/L; plasma samples were treated with acetonitrile to precipitate protein, and then analyzed.

[2] = molecular target: T1, recombinant human plasma kallikrein (Human PKal) (Homo sapiens, UniProt P03952); assay: Inhibitory effect of test compounds on plasma kallikrein (PKal), fluorogenic substrate Z-FR-AMC; format: biochemical; conditions: 10 µM Z-FR-AMC, 10 min pre-incubation
T1 construct: Gly20-Ala638 derived from NS0- with a 60-His appendage at the C-terminus; His tag ('60-His' [sic]) (C); purchased R&D Systems 2497-SE; host or cells: mouse myeloma cell line NS0
T1 sequence (P03952 20-638): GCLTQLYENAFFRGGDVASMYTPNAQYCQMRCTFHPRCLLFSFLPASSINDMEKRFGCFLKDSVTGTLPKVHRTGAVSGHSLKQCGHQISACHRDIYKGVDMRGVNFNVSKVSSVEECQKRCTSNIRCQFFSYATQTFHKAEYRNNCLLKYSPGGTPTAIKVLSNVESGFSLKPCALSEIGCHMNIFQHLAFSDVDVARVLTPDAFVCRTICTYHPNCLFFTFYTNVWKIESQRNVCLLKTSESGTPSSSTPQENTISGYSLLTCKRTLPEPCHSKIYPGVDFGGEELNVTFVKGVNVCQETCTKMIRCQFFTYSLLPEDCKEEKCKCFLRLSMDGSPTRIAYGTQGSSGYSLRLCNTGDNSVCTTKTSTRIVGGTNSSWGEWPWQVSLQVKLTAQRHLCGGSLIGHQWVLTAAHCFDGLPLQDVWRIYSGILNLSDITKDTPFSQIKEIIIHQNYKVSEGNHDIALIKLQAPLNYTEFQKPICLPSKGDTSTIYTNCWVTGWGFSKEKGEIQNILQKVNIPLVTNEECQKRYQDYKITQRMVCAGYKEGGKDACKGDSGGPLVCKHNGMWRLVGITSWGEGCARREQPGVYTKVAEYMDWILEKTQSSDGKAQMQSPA
Experimental: 1. PKal reaction buffer: 25 mM Tris-HCl (trometamol-HCl), pH 8.0, 100 mM NaCl, […], 0.01 % Brij35 (polyoxyethylene lauryl ether), and 1 % DMSO (final concentration).
2. Enzyme: PKal (R&D Systems Cat# 2497-SE), recombinant human plasma kallikrein expressed in a mouse myeloma cell line, Gly20-Ala638 derived from NS0- with a 60-His appendage at the C-terminus, MW=70 kDa. Activation of the enzyme: (1) rhPKal was diluted to 200 µg/mL activation buffer (100 mM Tris, 10 mM CaCl2, 150 mM NaCl, pH 7.5 (TCN)); (2) thermolysin was diluted to 20 µg/mL activation buffer; (3) rhPKal (200 µg/mL) and thermolysin (20 µg/mL) were mixed in equal volumes; (4) the mixture was incubated at 37° C. for 30 min; (5) then the reactions was stopped with 50 µM EDTA (ethylenediaminetetraacetic acid).
3. Substrate (Enzo Cat# P-139): 10 µM Z-FR-AMC (AMC: 7-amino-4-methylcoumarin).
4. Detection: EnVision (PE), Ex/Em 355/460 nm.
5. Reaction process: (1) The specified enzymes and substrates were prepared in freshly prepared activation buffer; (2) the enzyme solution was injected into the reaction hole; (3) the DMSO solution of the test compound was injected into the reaction mixture, and controlled within the nanoliter range using acoustic technology (Echo 550, LabCyte Inc. Sunnyvale, CA); (4) after 10 min of pre-incubation, the substrate solution was injected into the reaction hole to start the reaction; (5) the activity of the enzyme could be indicated by the increase of the fluorescence signal of the fluorescent labeled peptide substrate, which was monitored every 5 min and lasted for 120 min at room temperature; (6) data analysis: the slope* (fluorescence signal/time) of the straight line was measured, then the slope could be calculated by excel and the curve could be fitted by Prism software.

[3] = po, intragastric administration (group 1), nominal 2 mg/kg (actual dose in c2)
[4] = intravenous administration, nominal 1 mg/kg (actual dose in c2)
[5] = po, intragastric administration (group 2), nominal 30 mg/kg (actual dose in c2)

SMILES	AUC(0-inf) [1, 3] [µM·h]	AUC(0-t) [1, 3] [µM·h]	half-life [1, 3] [min]	Tmax [1, 3] [min]	Cmax [1, 3] [nM]	IC50 [2] [nM]	also measured
COc1ccnc(CNC(=O)c2cn(Cc3ccc(Cn4cc(F)ccc4=O)cc3)nc2C2COC2)c1F [Compound 2]	0.246	0.241	26.2	15	301	1.53	
COc1ccc(Cl)c(CNC(=O)c2cn(Cc3ccc(Cn4cc(F)ccc4=O)cc3)nc2C2COC2)c1F [Compound 3]	2.12	2.11	82.2	30	1760	0.264	bioavailability [1, 3]: 19.3%; Vd [1, 4]: 0.169 L/kg; clearance [1, 4]: 7.85 mL/min/kg; AUC(0-inf) [1, 4]: 5.5 µM·h; AUC(0-t) [1, 4]: 5.49 µM·h; half-life [1, 4]: 42.8 min
COc1ccc(Cl)c(CNC(=O)c2cn(Cc3ccc(Cn4ccccc4=O)cc3)nc2C2COC2)c1F [Compound 4]	1.8	1.79	76.8	22.2	1550	0.052	bioavailability [1, 3]: 22.7%; Vd [1, 4]: 0.182 L/kg; clearance [1, 4]: 8.26 mL/min/kg; AUC(0-inf) [1, 4]: 3.95 µM·h; AUC(0-t) [1, 4]: 3.94 µM·h; half-life [1, 4]: 36.3 min
COc1ccc(F)c(CNC(=O)c2cn(Cc3ccc(Cn4ccccc4=O)cn3)nc2C2COC2)c1F [Compound 5]						18.7	
COc1ccc(F)c(CNC(=O)c2cn(Cc3ccc(Cn4cc(F)ccc4=O)nc3)nc2C2COC2)c1F [Compound 6]	0.661	0.653	140	22.2	650	2.63	
COc1ccc(F)c(CNC(=O)c2cn(Cc3ccc(Cn4ccccc4=O)c(F)c3)nc2C2COC2)c1F [Compound 7]						0.552	AUC(0-inf) [1, 5]: 1.93 µM·h; AUC(0-t) [1, 5]: 1.84 µM·h; half-life [1, 5]: 157 min; Tmax [1, 5]: 30 min; Cmax [1, 5]: 813 nM
COc1ccnc(CNC(=O)c2cn(Cc3ccc(Cn4cc(F)ccc4=O)cc3)nc2C2(C)COC2)c1F [Compound 9]						1.03	
COc1ccc(F)c(CNC(=O)c2cn(Cc3ccc(Cn4cc(F)ccc4=O)cc3)nc2C2(C)COC2)c1F [Compound 10]						0.344	
COc1ccc(F)c(CNC(=O)c2cn(Cc3ccc(Cn4ccccc4=O)cc3)nc2C2CN(C(C)=O)C2)c1F [Compound 13]						0.833	
COc1ccc(F)c(CNC(=O)c2cn(Cc3ccc(Cn4ccccc4=O)cc3)nc2C2CN(S(C)(=O)=O)C2)c1F [Compound 14]						0.717	
COc1ccnc(CNC(=O)c2cn(Cc3ccc(Cn4cc(F)ccc4=O)cc3)nc2C2CN(CC(F)(F)F)C2)c1F [Compound 15]						2.24	
COc1ccc(F)c(CNC(=O)c2cn(Cc3ccc(Cn4ccccc4=O)cc3)nc2C2COC2)c1F [Compound 16]	1.94	1.93	136	45	1140	0.62	bioavailability [1, 3]: 22.1%; Vd [1, 4]: 0.2 L/kg; clearance [1, 4]: 7.3 mL/min/kg; AUC(0-inf) [1, 4]: 4.39 µM·h; AUC(0-t) [1, 4]: 4.37 µM·h; half-life [1, 4]: 35.8 min
COc1ccnc(CNC(=O)c2cn(Cc3ccc(Cn4ccccc4=O)cc3)nc2C2COC2)c1F [Compound 17]	0.246	0.237	50.8	30	230	0.053	
COc1ccc(F)c(CNC(=O)c2cn(Cc3ccc(Cn4ccccc4=O)cc3)nc2C2CNC2)c1F [Hydrochloride of compound 11]						0.269	
COc1ccc(F)c(CNC(=O)c2cn(Cc3ccc(Cn4ccccc4=O)cc3)nc2C2CN(C)C2)c1F [Hydrochloride of compound 12]						1.08	
COc1ccnc(CNC(=O)c2cn(Cc3ccc(Cn4cc(F)ccc4=O)c(F)c3)nc2C2COC2)c1F [Hydrochloride of compound 18]						2.31	
